# Test results reported in ChEMBL document CHEMBL6127039, “An update on small molecule compounds targeting synthetic lethality for cancer therapy” (Eur J Med Chem, 2024).
# Legend:
# [1] = biological target: Serine/threonine-protein kinase mTOR (Homo sapiens, UniProt P42345); assay: Inhibition of human mTOR
# [2] = biological target: Serine/threonine-protein kinase ATR (Homo sapiens, UniProt Q13535); assay: Inhibition of human recombinant ATR incubated for 40 mins by fluorescence based analysis
# [3] = Inhibition of DNA-PK (unknown origin) expressed in human HeLa cells; type: cell-based
# [4] = biological target: T1, DNA repair protein RAD51 homolog 1 (Homo sapiens, UniProt Q06609); assay: Inhibition of RAD51 (unknown origin)
# T1 sequence (Q06609 whole entry): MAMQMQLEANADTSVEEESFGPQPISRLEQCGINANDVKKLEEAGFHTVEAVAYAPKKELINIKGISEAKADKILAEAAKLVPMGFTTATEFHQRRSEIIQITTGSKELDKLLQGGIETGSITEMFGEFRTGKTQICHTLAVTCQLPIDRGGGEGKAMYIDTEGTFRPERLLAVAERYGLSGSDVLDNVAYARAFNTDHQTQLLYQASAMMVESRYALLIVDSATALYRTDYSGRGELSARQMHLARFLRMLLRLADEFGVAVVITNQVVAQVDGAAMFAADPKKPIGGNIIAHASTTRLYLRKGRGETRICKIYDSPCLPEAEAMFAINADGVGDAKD
# [5] = biological target: Protein arginine N-methyltransferase 5 (Homo sapiens, UniProt O14744); assay: Binding affinity to PRMT5 (unknown origin) assessed as inhibition constant
# [6] = Antiproliferative activity against human HCT116-MTAP null cells assessed as reduction in cell growth incubated for 72 hrs by MTT assay; type: functional, cell-based
# [7] = AUC (0 to t) in Sprague-Dawley rat at 20 mg/kg, po by LC-MS/MS analysis; type: ADME, organism-based; details: in vivo
# [8] = biological target: T2, Serine/threonine-protein kinase Chk1 (Homo sapiens, UniProt O14757); assay: Inhibition of CHK1 (unknown origin)
# T2 sequence (O14757 whole entry): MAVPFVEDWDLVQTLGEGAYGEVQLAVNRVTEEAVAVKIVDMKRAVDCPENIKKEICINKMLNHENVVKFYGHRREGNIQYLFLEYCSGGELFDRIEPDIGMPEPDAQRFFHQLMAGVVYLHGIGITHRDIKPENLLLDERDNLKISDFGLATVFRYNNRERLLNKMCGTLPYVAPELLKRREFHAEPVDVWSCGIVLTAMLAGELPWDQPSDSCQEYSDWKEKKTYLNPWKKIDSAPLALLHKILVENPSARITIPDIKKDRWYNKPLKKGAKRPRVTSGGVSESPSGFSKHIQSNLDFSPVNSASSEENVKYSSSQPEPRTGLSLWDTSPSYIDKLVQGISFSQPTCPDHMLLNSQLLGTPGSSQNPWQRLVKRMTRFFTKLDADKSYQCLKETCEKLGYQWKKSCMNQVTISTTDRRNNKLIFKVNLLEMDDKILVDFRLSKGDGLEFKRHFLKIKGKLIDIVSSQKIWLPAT
# [9] = biological target: Serine-protein kinase ATM (Homo sapiens, UniProt Q13315); assay: Inhibition of ATM (unknown origin)
# MV4-11 = assay: Antiproliferative activity against human MV4-11 cells assessed as reduction in cell viability incubated for 72 hrs by MTS assay; type: functional, cell-based; details: MV4-11, 72 h
# [10] = Half life in Sprague-Dawley rat at 20 mg/kg, po by LC-MS/MS analysis; type: ADME, organism-based; details: in vivo
# [11] = biological target: Serine/threonine-protein kinase VRK2 (Homo sapiens, UniProt Q86Y07); assay: Inhibition of VRK2 (14 to 335 residues) (unknown origin) extracted from Escherichia coli BL21 (DE3)-R3 cells
# [12] = biological target: Poly [ADP-ribose] polymerase 1 (Homo sapiens, UniProt P09874); assay: Inhibition of PARP-1 (unknown origin)
# MDA-MB-436 = assay: Antiproliferative activity against human MDA-MB-436 cells assessed as reduction in cell viability; type: functional, cell-based
# Chain of Serine/threonine-protein kinase ATR (Q13535 whole entry): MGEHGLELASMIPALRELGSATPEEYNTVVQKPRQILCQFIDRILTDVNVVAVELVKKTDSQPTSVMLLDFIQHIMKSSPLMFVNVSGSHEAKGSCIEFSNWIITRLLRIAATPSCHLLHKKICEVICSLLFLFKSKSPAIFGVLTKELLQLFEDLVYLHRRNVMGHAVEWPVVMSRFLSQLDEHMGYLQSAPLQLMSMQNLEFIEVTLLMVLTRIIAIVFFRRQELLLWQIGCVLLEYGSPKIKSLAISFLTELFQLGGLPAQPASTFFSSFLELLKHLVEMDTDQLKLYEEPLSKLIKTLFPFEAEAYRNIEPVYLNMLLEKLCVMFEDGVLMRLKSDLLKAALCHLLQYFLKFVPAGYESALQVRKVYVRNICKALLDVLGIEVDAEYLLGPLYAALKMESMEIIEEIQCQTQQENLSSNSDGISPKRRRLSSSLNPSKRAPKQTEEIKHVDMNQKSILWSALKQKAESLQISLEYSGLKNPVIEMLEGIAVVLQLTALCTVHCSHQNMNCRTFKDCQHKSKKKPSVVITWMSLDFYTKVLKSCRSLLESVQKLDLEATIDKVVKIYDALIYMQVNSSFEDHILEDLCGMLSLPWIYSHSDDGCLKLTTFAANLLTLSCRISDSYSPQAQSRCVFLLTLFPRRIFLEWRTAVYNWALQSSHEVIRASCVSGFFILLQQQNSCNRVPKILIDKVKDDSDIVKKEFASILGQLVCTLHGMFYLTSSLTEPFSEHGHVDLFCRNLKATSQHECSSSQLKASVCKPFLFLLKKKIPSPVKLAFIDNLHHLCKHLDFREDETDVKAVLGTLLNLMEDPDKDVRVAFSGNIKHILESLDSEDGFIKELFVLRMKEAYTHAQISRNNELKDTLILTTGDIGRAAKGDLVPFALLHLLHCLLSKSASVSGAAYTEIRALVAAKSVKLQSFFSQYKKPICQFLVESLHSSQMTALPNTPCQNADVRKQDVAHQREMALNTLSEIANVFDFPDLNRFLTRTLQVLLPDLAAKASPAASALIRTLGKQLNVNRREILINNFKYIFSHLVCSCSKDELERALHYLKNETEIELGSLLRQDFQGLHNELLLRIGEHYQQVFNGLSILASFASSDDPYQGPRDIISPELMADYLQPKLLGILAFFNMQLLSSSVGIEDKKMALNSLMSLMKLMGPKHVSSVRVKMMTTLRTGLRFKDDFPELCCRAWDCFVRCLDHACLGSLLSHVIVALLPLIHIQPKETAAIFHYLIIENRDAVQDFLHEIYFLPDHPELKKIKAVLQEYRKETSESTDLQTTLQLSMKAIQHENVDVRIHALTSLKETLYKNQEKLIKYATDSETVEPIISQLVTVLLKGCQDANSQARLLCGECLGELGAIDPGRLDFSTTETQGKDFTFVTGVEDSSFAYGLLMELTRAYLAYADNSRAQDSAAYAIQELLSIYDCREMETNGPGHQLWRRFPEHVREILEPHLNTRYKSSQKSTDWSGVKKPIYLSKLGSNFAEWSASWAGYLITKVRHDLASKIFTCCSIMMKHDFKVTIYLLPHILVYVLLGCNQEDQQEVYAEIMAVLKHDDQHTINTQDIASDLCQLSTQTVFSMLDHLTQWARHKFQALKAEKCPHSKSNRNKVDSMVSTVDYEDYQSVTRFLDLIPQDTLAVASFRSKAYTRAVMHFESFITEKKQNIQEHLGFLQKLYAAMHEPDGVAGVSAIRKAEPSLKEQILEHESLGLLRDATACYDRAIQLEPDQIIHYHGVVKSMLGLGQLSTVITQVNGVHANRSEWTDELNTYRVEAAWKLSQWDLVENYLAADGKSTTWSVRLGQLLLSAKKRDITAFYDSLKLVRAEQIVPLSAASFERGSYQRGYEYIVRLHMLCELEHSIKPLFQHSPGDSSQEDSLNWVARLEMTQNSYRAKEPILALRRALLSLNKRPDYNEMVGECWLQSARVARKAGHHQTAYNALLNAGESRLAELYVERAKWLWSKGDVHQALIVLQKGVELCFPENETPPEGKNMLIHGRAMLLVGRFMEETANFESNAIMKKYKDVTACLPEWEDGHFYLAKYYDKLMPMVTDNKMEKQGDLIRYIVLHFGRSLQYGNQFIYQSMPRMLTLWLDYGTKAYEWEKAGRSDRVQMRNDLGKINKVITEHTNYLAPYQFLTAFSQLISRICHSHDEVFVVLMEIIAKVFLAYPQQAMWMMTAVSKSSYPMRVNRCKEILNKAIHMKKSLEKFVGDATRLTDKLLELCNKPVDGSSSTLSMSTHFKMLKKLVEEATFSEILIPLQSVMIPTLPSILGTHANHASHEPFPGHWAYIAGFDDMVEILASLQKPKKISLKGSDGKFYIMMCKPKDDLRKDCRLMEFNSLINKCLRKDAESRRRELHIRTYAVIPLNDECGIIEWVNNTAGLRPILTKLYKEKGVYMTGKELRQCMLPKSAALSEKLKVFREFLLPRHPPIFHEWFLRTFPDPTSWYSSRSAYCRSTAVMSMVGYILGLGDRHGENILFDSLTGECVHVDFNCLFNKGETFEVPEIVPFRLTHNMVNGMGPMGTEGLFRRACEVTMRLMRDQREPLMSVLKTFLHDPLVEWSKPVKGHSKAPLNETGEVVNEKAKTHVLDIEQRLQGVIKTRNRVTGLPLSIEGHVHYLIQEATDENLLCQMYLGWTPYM
# Chain of Serine/threonine-protein kinase VRK2 (Q86Y07 whole entry, the tested form may be a part): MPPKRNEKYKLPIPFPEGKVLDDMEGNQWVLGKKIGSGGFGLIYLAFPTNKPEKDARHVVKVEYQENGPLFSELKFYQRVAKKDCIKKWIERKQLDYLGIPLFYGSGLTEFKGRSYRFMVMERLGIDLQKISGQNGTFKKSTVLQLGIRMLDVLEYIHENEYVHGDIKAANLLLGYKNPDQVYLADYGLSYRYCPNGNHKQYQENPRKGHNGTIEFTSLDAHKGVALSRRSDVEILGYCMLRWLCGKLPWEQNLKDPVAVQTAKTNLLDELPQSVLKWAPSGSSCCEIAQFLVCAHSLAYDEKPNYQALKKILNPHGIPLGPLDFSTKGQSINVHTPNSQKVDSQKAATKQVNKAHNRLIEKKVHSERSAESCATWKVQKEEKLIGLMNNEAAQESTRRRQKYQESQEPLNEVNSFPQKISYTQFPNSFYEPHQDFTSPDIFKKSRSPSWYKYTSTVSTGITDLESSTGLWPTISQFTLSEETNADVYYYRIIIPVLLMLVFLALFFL
# Chain of Protein arginine N-methyltransferase 5 (O14744 whole entry): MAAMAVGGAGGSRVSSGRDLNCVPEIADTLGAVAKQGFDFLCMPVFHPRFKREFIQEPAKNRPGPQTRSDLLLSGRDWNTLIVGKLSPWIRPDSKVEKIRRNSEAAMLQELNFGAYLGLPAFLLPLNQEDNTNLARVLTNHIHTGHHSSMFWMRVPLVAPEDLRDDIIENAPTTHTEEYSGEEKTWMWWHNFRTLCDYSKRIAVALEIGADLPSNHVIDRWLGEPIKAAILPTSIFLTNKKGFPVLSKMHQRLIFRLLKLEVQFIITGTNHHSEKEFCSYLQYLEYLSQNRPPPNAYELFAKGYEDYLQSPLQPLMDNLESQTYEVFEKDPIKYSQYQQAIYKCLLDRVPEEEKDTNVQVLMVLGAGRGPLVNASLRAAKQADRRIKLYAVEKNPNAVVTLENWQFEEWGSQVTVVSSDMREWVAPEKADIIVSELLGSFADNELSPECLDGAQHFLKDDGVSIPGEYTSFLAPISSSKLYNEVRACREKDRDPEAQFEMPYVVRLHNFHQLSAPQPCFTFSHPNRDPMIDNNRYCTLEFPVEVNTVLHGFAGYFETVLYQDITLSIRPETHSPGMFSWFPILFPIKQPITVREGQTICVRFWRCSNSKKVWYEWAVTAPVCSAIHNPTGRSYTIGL
# Chain of Poly [ADP-ribose] polymerase 1 (P09874 whole entry): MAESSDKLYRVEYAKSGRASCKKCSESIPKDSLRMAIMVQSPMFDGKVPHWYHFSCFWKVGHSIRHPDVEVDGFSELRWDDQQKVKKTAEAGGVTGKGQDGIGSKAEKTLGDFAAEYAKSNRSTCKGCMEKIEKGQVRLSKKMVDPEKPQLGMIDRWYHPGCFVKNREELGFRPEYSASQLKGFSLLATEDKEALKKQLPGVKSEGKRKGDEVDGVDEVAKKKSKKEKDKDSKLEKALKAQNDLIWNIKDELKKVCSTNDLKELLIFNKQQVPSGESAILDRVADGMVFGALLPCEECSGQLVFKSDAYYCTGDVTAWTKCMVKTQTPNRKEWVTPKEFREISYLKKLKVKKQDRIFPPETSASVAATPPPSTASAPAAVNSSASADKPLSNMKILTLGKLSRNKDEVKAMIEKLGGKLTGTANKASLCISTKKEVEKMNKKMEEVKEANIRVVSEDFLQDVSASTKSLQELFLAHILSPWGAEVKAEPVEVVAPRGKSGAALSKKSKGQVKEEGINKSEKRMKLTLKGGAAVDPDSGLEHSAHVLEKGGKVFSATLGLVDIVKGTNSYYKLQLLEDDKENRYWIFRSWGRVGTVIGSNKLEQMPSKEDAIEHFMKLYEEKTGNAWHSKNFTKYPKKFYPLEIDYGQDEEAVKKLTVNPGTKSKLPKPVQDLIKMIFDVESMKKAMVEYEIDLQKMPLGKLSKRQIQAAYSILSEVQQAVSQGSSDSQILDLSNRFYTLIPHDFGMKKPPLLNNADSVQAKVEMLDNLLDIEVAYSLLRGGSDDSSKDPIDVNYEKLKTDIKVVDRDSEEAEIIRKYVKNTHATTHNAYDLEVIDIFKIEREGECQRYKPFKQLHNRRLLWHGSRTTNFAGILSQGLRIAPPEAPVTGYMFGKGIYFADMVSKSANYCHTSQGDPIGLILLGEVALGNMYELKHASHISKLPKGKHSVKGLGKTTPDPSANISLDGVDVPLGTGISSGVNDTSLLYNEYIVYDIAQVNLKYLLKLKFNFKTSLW
smiles,measurement,setting,value
C[C@@H]1COCCN1c1cc([C@]2(O)C[C@H]3CC[C@@H](C2)O3)c2cnn(-c3cc[nH]n3)c2n1 [CAMONSERTIB],IC50,[1],120 nM
same,IC50,[2],1 nM
C[C@@H]1COC[C@H]2COc3c(nc(-c4ccnc5[nH]ccc45)nc3C(C)(C)C#N)N21,IC50,[2],16 nM
COC1/C=C/Cc2cnc3cc(C)c(cn23)Nc2ncc3c(n2)n(c(=O)n3C)CC1 (stereo unspecified),IC50,[3],4 nM
Cc1cc2ncc3n2cc1Nc1ncc2c(n1)n(c(=O)n2C)CCCCC3,IC50,[3],4 nM
O=c1nc(/C=C/c2cccnc2)n(Cc2ccccc2)c2ccccc12,IC50,[4],4300 nM
Cc1cc2cc(C(=O)N(Cc3ccc(C(F)(F)F)cn3)[C@@H]3CCCc4cn[nH]c43)ccc2nc1N,Ki,[5],0.05 nM
same,IC50,[6],10 nM
O=c1nc(/C=C/c2cccnc2)n(Cc2ccc(I)cc2)c2ccccc12,IC50,[4],720 nM
COc1cccc(NC(=O)c2cc(-c3ccc(CC4C(=O)N(c5cccc(C(=O)O)c5)N=C4C(F)(F)F)o3)ccc2Cl)c1 (stereo unspecified),IC50,[3],110 nM
N#Cc1ncc(Nc2ncc(-c3ccccc3)s2)cc1N[C@@H]1CCNC1,AUC(0-t),[7]; Sprague-Dawley,10700 ng·h/mL
same,IC50,[8],4.25 nM
COc1cc2ncn(-c3cc(OCc4ccccc4C(F)(F)F)c(C(N)=O)s3)c2cc1OC [GW843682X],IC50,[9],480 nM
Cn1cc(-c2cnc(Nc3ccc(C#N)nc3)nc2N[C@H]2CCCNC2)cn1,IC50,MV4-11,35 nM
same,AUCt,"[7]; po, 20 mg/kg",1370 ng·h/mL
same,half-life,[10],5.3 h
CC(C)CCN1c2nc(Nc3cc(F)c(O)c(F)c3)ncc2N(C)C(=O)[C@@H]1C,IC50,[11],196 nM
COc1cccc(NC(=O)c2cc(-c3ccc(/C=C4\C(=O)N(c5cccc(C(=O)O)c5)N=C4C)o3)ccc2Cl)c1,IC50,[3],3120 nM
Cc1ccoc1C(=O)N1CCCN(C(=O)c2ccc(-c3nc4c(C(N)=O)cccc4[nH]3)cc2)CC1,IC50,[12],22.8 nM
O=C(c1cc(Cc2n[nH]c(=O)c3ccccc23)ccc1F)N1CCN(C(=O)C2CC2)CC1 [OLAPARIB],IC50,MDA-MB-436,23900 nM
COc1cccc(NC(=O)c2cc(-c3ccc(CC4C(=O)N(c5cccc(-c6nnn[nH]6)c5)N=C4C)o3)ccc2Cl)c1 (stereo unspecified),IC50,[3],240 nM
COc1cccc(NC(=O)c2cc(-c3ccc(CC4C(=O)N(c5cccc(C(=O)O)c5)N=C4C)o3)ccc2Cl)c1 (stereo unspecified),IC50,[3],500 nM
Cc1cc(C(N)=O)ccc1Nc1ncc2c(n1)n(C1CCOCC1)c(=O)n2C,IC50,[3],0.08 nM
C[C@@H]1COCCN1c1nc(-c2ccnn2C)c2c(n1)c(-c1ccn[nH]1)nn2C,IC50,[2],1 nM
Cn1c(=O)n2c3ccccc3oc3c(-c4ccc(OCCCN5CCCCC5)nc4)c(F)cc4ncc1c2c43,IC50,[9],0.45 nM
Nc1nc2cc(F)c(C(=O)N(Cc3ccc(C(F)(F)F)cn3)C34CC(C3)C4)cc2c2c1COC2,IC50,[6],8 nM
